# Laboratory results from US7105620B2, “3,4-alkylenedioxy-thiophene copolymers” (Agfa Gevaert, priority 2001, dated 2006).
# Experiment: Solubility of 3,4-alkylenedioxythiophene compounds in water at 25° C.
# Assay type: physicochemical
# Conditions: thermodynamic from solid, visually adjudged dissolved
# Description: The solubility of the 3,4-alkylenedioxythiophene compounds was determined by adding a particular quantity thereof with stirring to sufficient water so that all the monomer was visually adjudged to have dissolved.
row,solubility [µg/mL],Compound
1,~8200,"OC1COc2cscc2OC1 [M2, 3,4-dihydro-2H-thieno[3,4-b][1,4]dioxepin-3-ol]"
2,~2700,"O=C(O)COCC1COc2cscc2O1 (stereo not drawn) [M3, (2,3-dihydro-thieno[3,4-b][1,4]dioxin-2-yl-methoxy)-acetic acid]"
3,~10000,"OCC1COc2cscc2O1 (stereo not drawn) [M1, (2,3-dihydro-thieno[3,4-b][1,4]dioxin-2-yl)-methanol]"
4,~4500,"COCCOCCOCCOCC1COc2cscc2O1 (stereo not drawn) [M4, 2-{2-[2-(2-methoxy-ethoxy)-ethoxy]-ethoxymethyl}-2,3-dihydro-thieno[3,4-b][1,4]dioxine]"

row,Compound,solubility [µg/mL]
1,"O=S(=O)([O-])CCCCOCC1COc2cscc2O1.[Na+] (stereo not drawn) [M6, 4-(2,3-dihydro-thieno[3,4-b][1,4]dioxin-2-ylmethoxy)-butane-1-sulfonic acid sodium salt]",~167000

# Same assay, conditions: visually adjudged dissolved
row,Compound,Solubility in water at 25° C.
1,"Polyethylene Oxide Substituted (2,3-dihydro-thieno[3,4-b][1,4]dioxin-2-yl)-methanol [M5]",ca. >128 g/L
